The source of these data is ChEMBL document CHEMBL1909046, “DrugMatrix in vitro pharmacology data”.

The nature of data set [1]: DRUGMATRIX: Calcium Channel Type L, Dihydropyridine radioligand binding (ligand: [3H] Nitrendipine). To be noted: Not Active = under 50% inhibition at 10 µM. The data set is classed as cell membranes, Rattus norvegicus, Wistar, Cerebral cortex, Membrane.
For data set [2], the target named is C-C chemokine receptor type 5 (Homo sapiens, UniProt P51681). The data set is classed as cell membranes, HEK293, Membrane. Further: in other assays of this panel Not Active means under 50% inhibition at 10 µM.
Chain of C-C chemokine receptor type 5 (P51681 whole entry): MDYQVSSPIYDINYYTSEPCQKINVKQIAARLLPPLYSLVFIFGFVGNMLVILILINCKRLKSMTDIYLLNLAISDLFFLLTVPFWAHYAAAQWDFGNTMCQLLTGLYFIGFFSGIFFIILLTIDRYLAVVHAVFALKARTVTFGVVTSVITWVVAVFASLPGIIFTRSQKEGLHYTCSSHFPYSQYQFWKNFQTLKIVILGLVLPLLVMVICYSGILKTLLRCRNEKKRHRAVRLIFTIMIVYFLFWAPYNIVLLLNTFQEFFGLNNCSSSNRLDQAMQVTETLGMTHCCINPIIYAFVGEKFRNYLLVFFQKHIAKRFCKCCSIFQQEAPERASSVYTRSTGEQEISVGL
Data set [3] concerns the target D(1A) dopamine receptor (Homo sapiens, UniProt P21728). In words: DRUGMATRIX: Dopamine D1 radioligand binding (ligand: [3H] SCH-23390). The data set is classed as cell membranes, Membrane. To be noted: cho; Not Active = under 50% inhibition at 10 µM.
Data set [4] in a line: DRUGMATRIX: Calcium Channel Type L, Phenylalkylamine radioligand binding (ligand: [3H] (-)-Desmethoxyverapamil (D-888)). To be noted: Not Active = under 50% inhibition at 10 µM. The data set is classed as cell membranes, Rattus norvegicus, Wistar, Brain, Membrane.
For data set [5], the target named is T1, Type-2 angiotensin II receptor (Homo sapiens, UniProt P50052). Further: in other assays of this panel Not Active means under 50% inhibition at 10 µM.
T1 sequence (P50052 whole entry): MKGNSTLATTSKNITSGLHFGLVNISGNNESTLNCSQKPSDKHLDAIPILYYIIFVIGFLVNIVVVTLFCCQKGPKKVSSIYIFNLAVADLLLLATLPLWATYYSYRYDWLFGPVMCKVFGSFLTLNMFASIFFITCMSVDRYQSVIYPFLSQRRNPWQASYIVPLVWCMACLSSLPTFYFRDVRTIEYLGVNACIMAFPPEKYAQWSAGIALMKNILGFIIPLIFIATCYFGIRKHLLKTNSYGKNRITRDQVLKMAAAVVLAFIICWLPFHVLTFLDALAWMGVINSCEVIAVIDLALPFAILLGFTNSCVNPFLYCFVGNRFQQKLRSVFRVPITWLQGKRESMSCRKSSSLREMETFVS
The data set is classed as cell-based. To be noted: cho-k1.

The target of data set [6] is 5-hydroxytryptamine receptor 2B (Homo sapiens, UniProt P41595). Type of data set: cell membranes, CHO-K1, Membrane. To be noted: cho-k1. Further: in other assays of this panel Not Active means under 50% inhibition at 10 µM.
Chain of 5-hydroxytryptamine receptor 2B (P41595 whole entry): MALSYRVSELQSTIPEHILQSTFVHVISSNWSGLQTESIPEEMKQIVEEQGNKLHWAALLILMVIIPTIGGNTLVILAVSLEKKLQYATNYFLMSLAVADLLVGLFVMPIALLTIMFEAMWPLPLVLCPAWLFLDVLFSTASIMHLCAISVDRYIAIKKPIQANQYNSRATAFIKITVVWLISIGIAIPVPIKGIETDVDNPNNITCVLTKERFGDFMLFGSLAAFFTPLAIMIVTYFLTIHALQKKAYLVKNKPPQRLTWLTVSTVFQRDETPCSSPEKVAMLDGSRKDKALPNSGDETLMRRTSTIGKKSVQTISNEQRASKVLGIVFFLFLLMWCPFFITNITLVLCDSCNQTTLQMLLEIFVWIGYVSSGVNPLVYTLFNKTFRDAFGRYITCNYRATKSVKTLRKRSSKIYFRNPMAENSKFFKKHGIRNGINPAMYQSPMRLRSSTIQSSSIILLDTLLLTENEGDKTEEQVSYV
Data set [7] can be described thus: DRUGMATRIX: GABAA, Chloride Channel, TBOB radioligand binding (ligand: [3H] TBOB). Type of data set: cell membranes, Rattus norvegicus, Wistar, Cerebral cortex, Membrane. To be noted: Not Active = under 50% inhibition at 10 µM.
The target in data set [8] is T2, Cytochrome P450 1A2 (Homo sapiens, UniProt P05177). Further: in other assays of this panel Not Active means under 50% inhibition at 10 µM.
T2 sequence (P05177 whole entry): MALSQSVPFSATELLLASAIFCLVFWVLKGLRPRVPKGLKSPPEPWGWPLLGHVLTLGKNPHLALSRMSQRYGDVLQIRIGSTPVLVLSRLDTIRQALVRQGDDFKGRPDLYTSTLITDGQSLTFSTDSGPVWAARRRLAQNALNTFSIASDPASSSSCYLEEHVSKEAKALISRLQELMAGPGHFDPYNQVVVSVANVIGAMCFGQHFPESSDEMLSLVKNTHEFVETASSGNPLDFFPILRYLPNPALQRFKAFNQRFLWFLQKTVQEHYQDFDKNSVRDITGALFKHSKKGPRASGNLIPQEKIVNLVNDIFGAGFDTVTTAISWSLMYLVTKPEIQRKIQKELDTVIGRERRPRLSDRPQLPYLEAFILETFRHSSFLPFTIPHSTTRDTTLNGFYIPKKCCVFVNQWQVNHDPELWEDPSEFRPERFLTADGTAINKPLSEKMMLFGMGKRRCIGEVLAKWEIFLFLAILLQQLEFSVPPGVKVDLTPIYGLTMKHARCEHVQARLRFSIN
To be noted: bti-tn-5b1-4.

Chain of D(1A) dopamine receptor (P21728 whole entry): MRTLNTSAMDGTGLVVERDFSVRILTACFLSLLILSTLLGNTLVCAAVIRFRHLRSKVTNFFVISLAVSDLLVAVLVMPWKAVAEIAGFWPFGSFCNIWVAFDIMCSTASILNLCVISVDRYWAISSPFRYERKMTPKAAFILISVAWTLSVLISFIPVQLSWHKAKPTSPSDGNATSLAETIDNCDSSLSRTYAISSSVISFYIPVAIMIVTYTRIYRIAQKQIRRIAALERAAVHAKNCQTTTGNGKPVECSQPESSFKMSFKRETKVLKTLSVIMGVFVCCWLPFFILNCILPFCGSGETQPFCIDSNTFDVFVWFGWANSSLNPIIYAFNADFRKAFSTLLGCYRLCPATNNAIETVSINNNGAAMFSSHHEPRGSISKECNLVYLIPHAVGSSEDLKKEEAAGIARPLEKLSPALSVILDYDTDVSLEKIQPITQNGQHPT

By IC50 is commonly meant the midpoint of a concentration-inhibition curve. The term Ki denotes the dissociation constant of the complex between target and ligand, obtained from inhibition or displacement. `CC1=C(CC(=O)O)c2cc(F)ccc2/C1=C\c1ccc([S+](C)[O-])cc1` (stereo not given): the IC50 entry in data set [1], in data set [2] (hek293), in data set [3], in data set [4], in data set [5] and in data set [6] was “Not Active” each time. Further, the IC50 result in data set [7] and in data set [8] was “Not Active” throughout. In addition, the Ki entry in data set [1], in data set [4], in data set [7] and in data set [8] was “Not Active” in each case.
Consider `N[C@H](CSC(=S)NCc1ccccc1)C(=O)O`, for which the IC50 result in data set [1], in data set [2] (hek293), in data set [3], in data set [4], in data set [5] and in data set [6] was “Not Active” each time. For the same molecule, the IC50 entry in data set [7] and in data set [8] was “Not Active” throughout. Further, the Ki result in data set [1], in data set [4], in data set [7] and in data set [8] was “Not Active” in each case.
`CC(=O)N[C@@H]1[C@H](Oc2c3cc4cc2Oc2ccc(cc2Cl)[C@@H](O[C@@H]2O[C@@H](CO)[C@@H](O)[C@H](O)[C@@H]2NC(C)=O)[C@@H]2NC(=O)[C@H](NC(=O)[C@@H]4NC(=O)[C@H]4NC(=O)[C@@H](Cc5ccc(c(Cl)c5)O3)NC(=O)[C@H](N)c3ccc(O)c(c3)Oc3cc(O)cc4c3)c3ccc(O)c(c3)-c3c(O[C@H]4O[C@H](CO)[C@@H](O)[C@@H](O)[C@@H]4O)cc(O)cc3[C@@H](C(=O)O)NC2=O)O[C@@H](CO)[C@@H](O)[C@@H]1O`: the IC50 result in data set [1], in data set [2] (hek293), in data set [3], in data set [4], in data set [5] and in data set [6] was “Not Active” each time. Besides, the IC50 result in data set [7] and in data set [8] was “Not Active” in each case. Also, the Ki entry in data set [1], in data set [4], in data set [7] and in data set [8] was “Not Active” in each case.
In the case of `Clc1ccc2c(c1)C(N1CCNCC1)=Nc1ccccc1O2` [AMOXAPINE], the 50% inhibitory concentration (IC50) entry in data set [2] (hek293), in data set [5] and in data set [8] was “Not Active” each time. Besides, the Ki result in data set [8] was “Not Active”.
With `COc1cc2c(c(OC)c1OC)-c1ccc(OC)c(=O)cc1[C@@H](NC(C)=O)CC2` [COLCHICINE], the IC50 entry in data set [2] (hek293), in data set [5] and in data set [6] was “Not Active” in each case.
In the case of `CN1CCC(=C2c3ccccc3C=Cc3ccccc32)CC1` [CYPROHEPTADINE], the IC50 entry in data set [2] (hek293), in data set [5] and in data set [8] was “Not Active” in each case. The Ki result in data set [8] is recorded as “Not Active”.
Take `CC/C(=C(/CC)c1ccc(O)cc1)c1ccc(O)cc1` [DIETHYLSTILBESTROL]: the IC50 result in data set [2] (hek293), in data set [5] and in data set [8] was “Not Active” in each case. Besides, the inhibition constant Ki entry in data set [8] is “Not Active”.
For the molecule `CC(=O)N1CCN(c2ccc(OCC3COC(Cn4ccnc4)(c4ccc(Cl)cc4Cl)O3)cc2)CC1` (stereo not given) [KETOCONAZOLE], the IC50 entry in data set [1], in data set [2] (hek293), in data set [3], in data set [4], in data set [5] and in data set [6] was “Not Active” each time. Moreover, the IC50 result in data set [7] and in data set [8] was “Not Active” throughout. Moreover, the Ki entry in data set [1], in data set [4], in data set [7] and in data set [8] was “Not Active” throughout.
Turning to `C=CCN1CC[C@]23c4c5ccc(O)c4O[C@H]2C(=O)CC[C@@]3(O)[C@H]1C5` [NALOXONE], the IC50 result in data set [2] (hek293), in data set [5] and in data set [6] was “Not Active” each time.
As for `COCCOC(=O)C1=C(C)NC(C)=C(C(=O)OC(C)C)C1c1cccc([N+](=O)[O-])c1` (stereo not given) [NIMODIPINE], the IC50 in data set [1] (read-out: IC50) is 0.242 nM; in data set [2] (hek293) it was “Not Active”; in data set [3], “Not Active”; in data set [4] it was “Not Active”; in data set [5], “Not Active”; in data set [6], “Not Active”. Moreover, in data set [7], the IC50 entry was “Not Active”. In addition, the Ki was 0.156 nM in data set [1] (read-out: Ki), “Not Active” in data set [4] and “Not Active” in data set [7].
With `CC(C)NCC(O)COc1cccc2ccccc12` (stereo not given) [PROPRANOLOL], the IC50 entry in data set [2] (hek293) and in data set [5] was “Not Active” throughout.
Turning to `COCCCOc1ccnc(C[S+]([O-])c2nc3ccccc3[nH]2)c1C` (stereo not given) [RABEPRAZOLE], the IC50 entry in data set [1], in data set [2] (hek293), in data set [3], in data set [4], in data set [5] and in data set [6] was “Not Active” in each case. Besides, the IC50 entry in data set [7] and in data set [8] was “Not Active” each time. For the same molecule, the Ki entry in data set [1], in data set [4], in data set [7] and in data set [8] was “Not Active” throughout.
On to `O=C(c1ccc(OCCN2CCCCC2)cc1)c1c(-c2ccc(O)cc2)sc2cc(O)ccc12` [RALOXIFENE], for which the IC50 was 388 nM in data set [1] (read-out: IC50); “Not Active” in data set [2] (hek293); 148 nM in data set [4] (read-out: IC50); “Not Active” in data set [5]; “Not Active” in data set [7]; “Not Active” in data set [8]. Moreover, the inhibitory constant (Ki) in data set [1] (read-out: Ki) was 249 nM; in data set [4] (read-out: Ki) it was 144 nM; in data set [7], “Not Active”; in data set [8] it was “Not Active”.
With `CNC(=C[N+](=O)[O-])NCCSCc1ccc(CN(C)C)o1` [RANITIDINE], the IC50 result in data set [1], in data set [2] (hek293), in data set [3], in data set [4], in data set [5] and in data set [6] was “Not Active” in each case. Further, the IC50 entry in data set [7] and in data set [8] was “Not Active” throughout. The Ki entry in data set [1], in data set [4], in data set [7] and in data set [8] was “Not Active” in each case.
Take `CO[C@H]1/C=C/O[C@@]2(C)Oc3c(C)c(O)c4c(c3C2=O)C2=NC3(CCN(CC(C)C)CC3)NC2=C(NC(=O)/C(C)=C\C=C\[C@H](C)[C@H](O)[C@@H](C)[C@@H](O)[C@@H](C)[C@H](OC(C)=O)[C@@H]1C)C4=O` [RIFABUTIN]: the IC50 entry in data set [1], in data set [2] (hek293), in data set [3], in data set [4], in data set [5] and in data set [6] was “Not Active” in each case. Further, the IC50 result in data set [7] and in data set [8] was “Not Active” in each case. The Ki entry in data set [1], in data set [4], in data set [7] and in data set [8] was “Not Active” each time.
In the case of `CC(C)c1nc(CN(C)C(=O)N[C@H](C(=O)N[C@@H](Cc2ccccc2)C[C@H](O)[C@H](Cc2ccccc2)NC(=O)OCc2cncs2)C(C)C)cs1` [RITONAVIR], the IC50 entry in data set [1], in data set [2] (hek293), in data set [3], in data set [5], in data set [6] and in data set [7] was “Not Active” in each case. The Ki result in data set [1] and in data set [7] was “Not Active” throughout.
Take `CC(C)CC(N(C)C)C1(c2ccc(Cl)cc2)CCC1` (stereo not given) [SIBUTRAMINE]: the IC50 entry in data set [1] is “Not Active”; in data set [2] (hek293), “Not Active”; in data set [3], “Not Active”; in data set [4] (read-out: IC50) it was 2720 nM; in data set [5], “Not Active”; in data set [6], “Not Active”. The IC50 entry in data set [7] and in data set [8] was “Not Active” in each case. In addition, the Ki entry in data set [1] was “Not Active”; in data set [4] (read-out: Ki), 2650 nM; in data set [7] it was “Not Active”; in data set [8], “Not Active”.
Turning to `CC(C)(C)c1ccc(C(O)CCCN2CCC(C(O)(c3ccccc3)c3ccccc3)CC2)cc1` (stereo not given) [TERFENADINE], the IC50 was 779 nM in data set [1] (read-out: IC50); 1100 nM in data set [2] (read-out: IC50); 624 nM in data set [4] (read-out: IC50); “Not Active” in data set [5]; “Not Active” in data set [7]; “Not Active” in data set [8]. The Ki is 501 nM in data set [1] (read-out: Ki); 852 nM in data set [2] (read-out: Ki); 607 nM in data set [4] (read-out: Ki); “Not Active” in data set [7]; “Not Active” in data set [8].
